Data from the METLIN SMRT retention time set (Domingo-Almenara et al. 2019).

Assay: gradient 5% acetonitrile 3 min, to 50% in 2 min, to 85% in 15 min, held 3 min, 100 µL/min
Conditions: column: Zorbax Extend-C18 2.1 x 50 mm; eluents: water / acetonitrile, 0.1% formic acid
Method in brief: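 The mobile phases were water and acetonitrile, each with 0.1% formic acid, pumped at 100 μL/min through a Zorbax Extend-C18 column (2.1 × 50 mm, 1.8 μm). Pure standards were injected as mixtures of ~100 molecules and detected by a quadrupole time-of-flight mass spectrometer in positive and negative ionization mode. Retention time came from computationally picked adduct peaks, each inspected by hand.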

| Structure (SMILES) | RP-LC retention time |
| --- | --- |
| COCCCNC(=O)C1CCCN(c2ncnc3c2nc2n3CCCCC2)C1 (stereo not drawn) | 625 s |
| O=C(Nc1ccccc1C(F)(F)F)N1CCC(n2cnc3cccnc32)CC1 | 657 s |
| COCCN1C(=O)c2ccccc2C(C(=O)NCCc2c[nH]c3ccccc23)C12CCCC2 (stereo not drawn) | 845 s |
| COc1ccc(C(=O)Nc2nc(-c3ccc4c(c3)NC(=O)CO4)c(C)s2)cc1 | 881 s |
| Cn1c(=O)n(CC(=O)NC2CCCCC2)c(=O)c2cnc(-c3ccc(Cl)cc3)nc21 | 1070 s |
| COc1cccc2oc(-c3ccccc3)cc(=O)c12 | 900 s |
| CC1=NS(=O)(=O)N(Cc2ccccc2)C=C1C(=O)OCc1nc(-c2ccc(C)cc2)no1 | 1110 s |
| COCCN1C(=O)c2ccccc2C(C(=O)N2CCN(c3ccccn3)CC2)C1c1cccs1 (stereo not drawn) | 621 s |
| CN(CC1CCOC1)C(=O)c1ccc(F)cc1Cl (stereo not drawn) | 704 s |
| COCCc1noc(C2Cc3ccccc3N2C(=O)NCC(=O)OC)n1 (stereo not drawn) | 720 s |
| CSc1ccc(-c2noc(Cn3ncn4nc(-c5ccc(C)cc5C)cc4c3=O)n2)cc1 | 1270 s |
| O=C(CCSCCc1ccccn1)Nc1c(F)cc(F)cc1Br | 627 s |
| O=C(CN1CCN(Cc2ccc(F)cc2)C1=O)NCc1ccc(F)cc1F | 809 s |
| NC(=O)C1CCN(Cc2nc(-c3ccc(N4CCOCC4)nc3)no2)CC1 | 563 s |
| O=C(Nc1cc(-c2cccs2)no1)c1cccc(F)c1 | 959 s |
| COC(=O)c1c(NC(=O)c2cc3ccccc3c(=O)o2)sc2c1CCCC2 | 748 s |
| COc1cc(-c2noc(Cc3nnc(-c4ccc(C)c(C)c4)o3)n2)cc(OC)c1OC | 1010 s |
| Cc1cc(C)n(CCNC(=O)C(=O)Nc2cc(C)on2)n1 | 608 s |
| O=C(CN1CCN(c2ccc(F)cc2)C1=O)NCCCN1CCCC1=O | 611 s |
| CCn1cnc(S(=O)(=O)N2CCCC(C(=O)NCc3ccccc3C)C2)c1 (stereo not drawn) | 726 s |
| CC(C)NC(=O)N1CCCC(CCc2nnc(-c3cnccn3)o2)C1 (stereo not drawn) | 627 s |
| COc1ccc(-c2noc(C3CCCN3C(=O)c3ccnn3C)n2)cc1 (stereo not drawn) | 808 s |

| Structure (SMILES) | RP-LC retention time |
| --- | --- |
| CCC(C)NC(=O)CCn1c(=O)c2ccccc2n2c(=O)n(Cc3ccccc3F)nc12 (stereo not drawn) | 884 s |
| CC(=O)N1CCc2[nH]c3ccc(C(=O)NCc4ccc(N5CCOCC5)cc4)cc3c2C1 | 635 s |
| O=S(=O)(c1ccc2nc(N3CCN(c4ccccn4)CC3)ccc2c1)N1CCCCC1 | 649 s |
| CCc1ccc(C(=O)N2CCC3(C2)C(=O)N(C)c2ccc(OC)cc23)cc1 (stereo not drawn) | 840 s |
| CSc1ccc(-c2nc3ccc(C)cn3c2Nc2ccc(C)cc2)cc1 | 819 s |
| CCc1ccc(NC(=O)C2CCCN(S(=O)(=O)c3cc(-c4noc(CC)n4)cs3)C2)cc1 (stereo not drawn) | 1110 s |
| Cc1cc(C)c(NC(=O)CN2C(=O)NC3(CCC(C)CC3)C2=O)c(C)c1 (stereo not drawn) | 570 s |
| COc1ccc(N2CC(C(=O)NCC(=O)N3CCCc4ccccc43)CC2=O)cc1 (stereo not drawn) | 724 s |
| CC1=C(c2ccccc2)S(=O)(=O)N=C1N1CCCN(C(=O)c2ccc(C#N)cc2)CC1 | 777 s |
| O=C(Nc1ccccc1C(F)(F)F)N1CCC(N2CCN(Cc3cccc(F)c3)C(=O)C2=O)CC1 | 829 s |
| CCOC(=O)c1c(C)[nH]c(CCC(=O)Nc2ccc(F)cc2F)c1C | 905 s |
| O=C(NC1CCCCC1)c1ccc2c(c1)N(Cc1ccccc1)C(=O)CO2 | 921 s |
| COC(=O)c1ccccc1NC(=O)CCc1c(-c2ccc(Cl)cc2)nc2ccccn12 | 772 s |
| O=C(c1cccs1)N1CCC(n2c(C3CCCC3)nc3cccnc32)C1 (stereo not drawn) | 653 s |
| O=C(Nc1cccs1)Nc1ccccc1NC(=O)c1ccco1 | 716 s |
| CCN1C(=O)CCc2cc(NS(=O)(=O)c3ccc(F)c(C)c3)ccc21 | 834 s |
| COC(=O)c1cccc(NC(=O)NC2CCCN2S(=O)(=O)c2ccc(Cl)cc2)c1 (stereo not drawn) | 821 s |
| CCN1C(=O)c2cccnc2Sc2cc(NC(=O)c3ccc(OC)cc3)ccc21 | 806 s |
| CCOC(=O)c1c(C)oc2nc(C)nc(NCc3ccc(OC)cc3OC)c12 | 1140 s |
| CCC(C)NC(=O)Cn1cnc2nc(N3CCC(C(=O)NC4CC4)CC3)sc2c1=O (stereo not drawn) | 1140 s |
| COCCCNC(=O)CCC[C@@H]1[C@H]2CCCN3CCC[C@@H](CN1C)[C@@H]23 | 709 s |
| COc1ccc(NC(=O)Cn2c(C)cc(-c3nnc(-c4ccccc4)o3)c2C)cc1F | 943 s |

| Structure (SMILES) | RP-LC retention time |
| --- | --- |
| Cn1nnc2c(N3CCN(C(=O)Nc4ccccc4C#N)CC3)ncnc21 | 626 s |
| COc1ccc(-c2cc(-c3nc4c5sc6nc(C)cc(C)c6c5ncn4n3)[nH]n2)cc1 | 1010 s |
| CN(C)S(=O)(=O)c1ccc2c(c1)N(CC(=O)NC1CCCC1)C(=O)C1CCCCN21 (stereo not drawn) | 856 s |
| O=C(NCc1ccccn1)C1CCCN(c2ccc3cc(S(=O)(=O)N4CCCC4)ccc3n2)C1 (stereo not drawn) | 585 s |
| Cc1nc2cc(-c3noc(-c4cccc(Br)c4)n3)ccc2o1 | 1270 s |
| COc1cc(NC(=O)Nc2c(-c3cccnc3)[nH]c3ccccc23)cc(OC)c1 | 679 s |
| O=C(C1=CN(c2ccccc2)c2cc(F)ccc2S1(=O)=O)N1CCOCC1 | 754 s |
| CN1C(=O)CCC2(CNC(=O)Nc3ccc4c(c3)OCCO4)CCCC=C12 (stereo not drawn) | 722 s |
| CN(CCNC(=O)c1ccc2c(c1)NC(=O)C1CCCCN21)C1CCCCC1 (stereo not drawn) | 630 s |
| COc1ccc(CCN2CC(C(=O)O)CC2=O)cc1OC (stereo not drawn) | 611 s |
| O=C(NCCc1cccc(F)c1)C1CC(=O)N(c2n[nH]c3cccc(F)c23)C1 (stereo not drawn) | 720 s |
| Cc1noc(C)c1CN1CCC(NC(=O)c2cc(Cl)ccc2F)C1 (stereo not drawn) | 570 s |
| Cc1ccccc1NC(=O)C(C)n1nc(C)c2nn(-c3ccccc3)c(-n3cccc3)c2c1=O (stereo not drawn) | 1090 s |
| Cc1cccc(N2CCN(c3ccc4nnc(CCc5nc(-c6ccccc6C)no5)n4n3)CC2)c1 | 1220 s |
| CCOC(=O)c1ccc(Nc2c(-c3ccc(OC)cc3)nc3cnccn23)cc1 | 641 s |
| Cc1cccc(-c2nc3c4ccccc4nc(N4CCN(c5ccccn5)CC4)n3n2)c1 | 921 s |
| CC1CCN(S(=O)(=O)c2cccn(CC(=O)N3CCCc4ccccc43)c2=O)CC1 | 910 s |
| CCCN(C)C(=O)c1c(C)oc2c1CN(C(=O)CC)CC2 | 652 s |
| COc1ccc(Cl)cc1S(=O)(=O)N1C[C@@H]2C[C@H]1C[C@@H]2NC(=O)c1ccccc1 | 873 s |
| O=C(c1ccc2c(c1)OCO2)N1CCCn2nc(-c3cccs3)cc2C1 | 796 s |
| COCCN(Cc1ccc(C(C)C)cc1)Cc1cc(=O)n2cc(Cl)ccc2n1 | 628 s |
| COc1ccc(CCS(=O)(=O)Nc2ccc(CC(=O)NCc3cccs3)cc2)cc1 | 782 s |

| Structure (SMILES) | RP-LC retention time |
| --- | --- |
| Cc1ccc(N2CCC(NC(=O)Cc3cccs3)C2=O)cc1 (stereo not drawn) | 827 s |
| COc1cccc(-c2noc(CCn3nc(-c4ccc(Cl)cc4)ccc3=O)n2)c1OC | 1010 s |
| CSc1ccc(CNC(=O)Cc2nnc(-c3ccc4ncccc4c3)o2)cc1 | 716 s |
| Cc1cccc(N2CCN(C(=O)C3CCCN(c4cc(=O)n(C)c(=O)n4C)C3)CC2)c1C (stereo not drawn) | 874 s |
| COC(=O)C(C)n1cccc1-c1nc(-c2ccncc2)no1 (stereo not drawn) | 840 s |
| CCn1cc(-c2ccc(Cl)cc2)cc1C(=O)NCCN(C)C | 702 s |
| CC(C)N(CC#CCNS(=O)(=O)c1ccc(Cl)cc1)C(C)C | 568 s |
| COc1ccccc1OCC(=O)N1CCN(c2cc(C(C)C)n3cnnc3n2)CC1 | 626 s |
| COc1cc(NC(=O)Cn2nc3cc(-c4ccccc4)nc(C)n3c2=O)cc(OC)c1 | 736 s |
| O=S(=O)(c1cc(-c2nnc(C3CCCC3)o2)co1)N1CCN(C2CCCCC2)CC1 | 715 s |
| CCOc1ccccc1-c1nc(Cc2noc(-c3ccncc3)n2)c(C)o1 | 918 s |
| CCN(CC)CCCNC(=O)C1CCCN(c2nnc(C)c3c(C)n(-c4ccccc4)nc23)C1 (stereo not drawn) | 556 s |
| CCN1CCN(CC2CCN(S(=O)(=O)Cc3c(F)cccc3Cl)CC2)CC1 | 611 s |
| O=C(CC1CCCC1)NCCC1CCN(C(=O)Nc2ccccc2)CC1 | 784 s |
| CCCC(=O)Nc1ccc2c(c1)CN(C(=O)c1c(F)cccc1Cl)C(C(=O)N(C)C)C2 (stereo not drawn) | 727 s |
| CCCN(C)c1nccn2c(=O)n(CC(=O)Nc3ccc(C)cc3)nc12 | 683 s |
| c1ccc2c(c1)[nH]c1c3ccccc3sc21 | 1160 s |
| Cc1nnc(N2CCCC(C(=O)NCc3ccc(F)cc3)C2)c2nn(-c3ccccc3)c(C)c12 (stereo not drawn) | 720 s |
| O=C(Nc1ccc(F)c(Cl)c1)c1sc2ncccc2c1-n1cccc1 | 1170 s |
| Cc1cc(N2CCN(C)CC2)nc2ccc(NC(=O)Nc3cccc(Cl)c3)cc12 | 590 s |
| COc1cccc(CN2CCc3nc(N4CCCC4)ncc3C2)c1 | 600 s |
| CCn1cc(C)c(C(=O)O)c1CC(=O)Nc1ccc2c(c1)OCCO2 | 762 s |
